Data reported in ChEMBL document CHEMBL3046568, “Synthesis, antimicrobial and DNA cleavage studies of some 4-aryloxymethylcoumarins obtained by reaction of 4-bromomethylcoumarins with bidentate nucleophiles” (2012).
Values after ≈ are worked out from the molar mass of the structure shown. Active and inactive are the calls of the source. The calls are words filed in the database; no cut-off is given here.

How the values were obtained:
Enterococcus faecalis = test: Antibacterial activity against Enterococcus faecalis MTCC 3382 after 24 hr by disk diffusion method; type: functional; conditions: for MIC: Enterococcus faecalis, MTCC 3382, 24 h
Aspergillus niger [1] = test: Induction of Aspergillus niger DNA cleavage at 25 ug after 2 hr by agarose gel electrophoresis
Aspergillus niger [2] = test: Induction of Aspergillus niger DNA cleavage at 50 ug after 2 hr by agarose gel electrophoresis
Escherichia coli [3] = test: Induction of Escherichia coli MTCC 1089 DNA cleavage at 50 ug after 2 hr by agarose gel electrophoresis
Staphylococcus aureus [4] = test: Induction of Staphylococcus aureus MTCC 3160 DNA cleavage at 50 ug after 2 hr by agarose gel electrophoresis
Fusarium oxysporum = test: Antifungal activity against Fusarium oxysporum after 3 to 4 days by serial dilution method; type: functional; conditions: for MIC: Fusarium oxysporum
Mucor fuscus = test: Antifungal activity against Mucor fuscus after 3 to 4 days by serial dilution method; type: functional; conditions: for MIC: Mucor fuscus
Penicillium chrysogenum = test: Antifungal activity against Penicillium chrysogenum after 3 to 4 days by serial dilution method; type: functional; conditions: for MIC: Penicillium chrysogenum
Aspergillus niger [5] = test: Antifungal activity against Aspergillus niger after 3 to 4 days by serial dilution method; type: functional; conditions: for MIC: Aspergillus niger
Candida albicans = test: Antifungal activity against Candida albicans after 3 to 4 days by serial dilution method; type: functional; conditions: for MIC: Candida albicans
Aspergillus fumigatus = test: Antifungal activity against Aspergillus fumigatus after 3 to 4 days by serial dilution method; type: functional; conditions: for MIC: Aspergillus fumigatus
Escherichia coli [6] = test: Antibacterial activity against Escherichia coli MTCC 1089 after 24 hr by disk diffusion method; type: functional; conditions: for MIC: Escherichia coli, MTCC 1089, 24 h
Klebsiella pneumoniae = test: Antibacterial activity against Klebsiella pneumoniae MTCC 3384 after 24 hr by disk diffusion method; type: functional; conditions: for MIC: Klebsiella pneumoniae, MTCC 3384, 24 h
Pseudomonas aeruginosa = test: Antibacterial activity against Pseudomonas aeruginosa MTCC 1034 after 24 hr by disk diffusion method; type: functional; conditions: for MIC: Pseudomonas aeruginosa, MTCC 1034, 24 h
Bacillus subtilis = test: Antibacterial activity against Bacillus subtilis MTCC 297 after 24 hr by disk diffusion method; type: functional; conditions: for MIC: Bacillus subtilis, MTCC 297, 24 h
Staphylococcus aureus [7] = test: Antibacterial activity against Staphylococcus aureus MTCC 3160 after 24 hr by disk diffusion method; type: functional; conditions: for MIC: Staphylococcus aureus, MTCC 3160, 24 h

| Structure (SMILES) | inhibition zone (IZ) (Enterococcus faecalis) [mm] | MIC (Enterococcus faecalis) [µg/mL] | Activity (Aspergillus niger [2]) | Activity (Escherichia coli [3]) | Activity (Staphylococcus aureus [4]) | MIC (Fusarium oxysporum) [µg/mL] | inhibition zone (IZ) (Mucor fuscus) [mm] | MIC (Mucor fuscus) [µg/mL] | inhibition zone (IZ) (Penicillium chrysogenum) [mm] | MIC (Penicillium chrysogenum) [µg/mL] | inhibition zone (IZ) (Aspergillus niger [5]) [mm] | MIC (Aspergillus niger [5]) [µg/mL] | inhibition zone (IZ) (Candida albicans) [mm] | MIC (Candida albicans) [µg/mL] | inhibition zone (IZ) (Aspergillus fumigatus) [mm] | MIC (Aspergillus fumigatus) [µg/mL] | MIC (Escherichia coli [6]) [µg/mL] | inhibition zone (IZ) (Klebsiella pneumoniae) [mm] | MIC (Klebsiella pneumoniae) [µg/mL] | inhibition zone (IZ) (Pseudomonas aeruginosa) [mm] | further results |
| --- | --- | --- | --- | --- | --- | --- | --- | --- | --- | --- | --- | --- | --- | --- | --- | --- | --- | --- | --- | --- | --- |
| CC(=O)Nc1cccc(OCc2cc(=O)oc3ccc(Cl)cc23)c1 | 23 | 6.25 (≈ 18.2 µM) | Active | Active | Active | 12.5 (≈ 36.4 µM) | 22 | 6.25 (≈ 18.2 µM) | 23 | 6.25 (≈ 18.2 µM) | 22 | 6.25 (≈ 18.2 µM) | 20 | 6.25 (≈ 18.2 µM) | 22 | 6.25 (≈ 18.2 µM) | 12.5 (≈ 36.4 µM) | 19 | 6.25 (≈ 18.2 µM) | 23 | Activity (Aspergillus niger [1]): Active; inhibition zone (IZ) (Fusarium oxysporum): 16 mm; inhibition zone (IZ) (Escherichia coli [6]): 16 mm; MIC (Pseudomonas aeruginosa): 6.25 µg/mL (≈ 18.2 µM); inhibition zone (IZ) (Bacillus subtilis): 20 mm; MIC (Bacillus subtilis): 6.25 µg/mL (≈ 18.2 µM); inhibition zone (IZ) (Staphylococcus aureus [7]): 21 mm; MIC (Staphylococcus aureus [7]): 6.25 µg/mL (≈ 18.2 µM) |
| CCN(CC)c1cccc(OCc2cc(=O)oc3ccc(Cl)cc23)c1 | 22 | 6.25 (≈ 17.5 µM) | Active | Active | Active | 12.5 (≈ 34.9 µM) | 21 | 6.25 (≈ 17.5 µM) | 23 | 6.25 (≈ 17.5 µM) | 22 | 6.25 (≈ 17.5 µM) | 18 | 6.25 (≈ 17.5 µM) | 22 | 6.25 (≈ 17.5 µM) | 12.5 (≈ 34.9 µM) | 19 | 6.25 (≈ 17.5 µM) | 25 | Activity (Aspergillus niger [1]): Active; inhibition zone (IZ) (Fusarium oxysporum): 16 mm; inhibition zone (IZ) (Escherichia coli [6]): 15 mm; MIC (Pseudomonas aeruginosa): 6.25 µg/mL (≈ 17.5 µM); inhibition zone (IZ) (Bacillus subtilis): 20 mm; MIC (Bacillus subtilis): 6.25 µg/mL (≈ 17.5 µM); inhibition zone (IZ) (Staphylococcus aureus [7]): 21 mm; MIC (Staphylococcus aureus [7]): 6.25 µg/mL (≈ 17.5 µM) |
| O=c1cc(COc2cccc(OCc3cc(=O)oc4c3ccc3ccccc34)c2)c2ccc3ccccc3c2o1 | 12 | 25 (≈ 47.5 µM) | inactive | inactive | inactive | 25 (≈ 47.5 µM) | 14 | 25 (≈ 47.5 µM) | 14 | 25 (≈ 47.5 µM) | 15 | 12.5 (≈ 23.7 µM) | 13 | 12.5 (≈ 23.7 µM) | 15 | 12.5 (≈ 23.7 µM) | 25 (≈ 47.5 µM) | 16 | 6.25 (≈ 11.9 µM) | 17 | inhibition zone (IZ) (Fusarium oxysporum): 14 mm; inhibition zone (IZ) (Escherichia coli [6]): 12 mm; MIC (Pseudomonas aeruginosa): 12.5 µg/mL (≈ 23.7 µM); inhibition zone (IZ) (Bacillus subtilis): 11 mm; MIC (Bacillus subtilis): 25 µg/mL (≈ 47.5 µM); inhibition zone (IZ) (Staphylococcus aureus [7]): 11 mm; MIC (Staphylococcus aureus [7]): 25 µg/mL (≈ 47.5 µM) |
| CC(=O)Nc1cccc(OCc2cc(=O)oc3ccc(C)cc23)c1 | 12 | 25 (≈ 77.3 µM) | inactive | inactive | inactive | 50 (≈ 155 µM) | 15 | 25 (≈ 77.3 µM) | 19 | 6.25 (≈ 19.3 µM) | 20 | 6.25 (≈ 19.3 µM) | 9 | 25 (≈ 77.3 µM) | 17 | 12.5 (≈ 38.7 µM) | 25 (≈ 77.3 µM) | 12 | 12.5 (≈ 38.7 µM) | 16 | inhibition zone (IZ) (Fusarium oxysporum): 10 mm; inhibition zone (IZ) (Escherichia coli [6]): 11 mm; MIC (Pseudomonas aeruginosa): 12.5 µg/mL (≈ 38.7 µM); inhibition zone (IZ) (Bacillus subtilis): 15 mm; MIC (Bacillus subtilis): 12.5 µg/mL (≈ 38.7 µM); inhibition zone (IZ) (Staphylococcus aureus [7]): 14 mm; MIC (Staphylococcus aureus [7]): 12.5 µg/mL (≈ 38.7 µM) |
| O=c1cc(COc2cccc(OCc3cc(=O)oc4ccc(Br)cc34)c2)c2cc(Br)ccc2o1 | 19 | 6.25 (≈ 10.7 µM) | Active | Active | Active | 25 (≈ 42.8 µM) | 18 | 12.5 (≈ 21.4 µM) | 18 | 12.5 (≈ 21.4 µM) | 19 | 6.25 (≈ 10.7 µM) | 17 | 6.25 (≈ 10.7 µM) | 18 | 12.5 (≈ 21.4 µM) | 12.5 (≈ 21.4 µM) | 17 | 6.25 (≈ 10.7 µM) | 21 | inhibition zone (IZ) (Fusarium oxysporum): 13 mm; inhibition zone (IZ) (Escherichia coli [6]): 14 mm; MIC (Pseudomonas aeruginosa): 6.25 µg/mL (≈ 10.7 µM); inhibition zone (IZ) (Bacillus subtilis): 16 mm; MIC (Bacillus subtilis): 6.25 µg/mL (≈ 10.7 µM); inhibition zone (IZ) (Staphylococcus aureus [7]): 17 mm; MIC (Staphylococcus aureus [7]): 6.25 µg/mL (≈ 10.7 µM) |
| Cc1ccc2oc(=O)cc(COc3cccc(OCc4cc(=O)oc5ccc(C)cc45)c3)c2c1 | 16 | 12.5 (≈ 27.5 µM) | inactive | inactive | inactive | > 100 | 16 | 12.5 (≈ 27.5 µM) | 16 | 25 (≈ 55 µM) | 17 | 12.5 (≈ 27.5 µM) | 9 | 25 (≈ 55 µM) | 17 | 12.5 (≈ 27.5 µM) | > 100 | 12 | 12.5 (≈ 27.5 µM) | 13 | MIC (Pseudomonas aeruginosa): 25 µg/mL (≈ 55 µM); inhibition zone (IZ) (Bacillus subtilis): 14 mm; MIC (Bacillus subtilis): 12.5 µg/mL (≈ 27.5 µM); inhibition zone (IZ) (Staphylococcus aureus [7]): 14 mm; MIC (Staphylococcus aureus [7]): 12.5 µg/mL (≈ 27.5 µM) |
| Cc1ccc2oc(=O)cc(COc3cccc(O)c3)c2c1 | 15 | 12.5 (≈ 44.3 µM) | inactive | inactive | inactive | 50 (≈ 177 µM) | 14 | 25 (≈ 88.6 µM) | 18 | 12.5 (≈ 44.3 µM) | 19 | 6.25 (≈ 22.1 µM) | 10 | 25 (≈ 88.6 µM) | 16 | 12.5 (≈ 44.3 µM) | 50 (≈ 177 µM) | 13 | 12.5 (≈ 44.3 µM) | 14 | inhibition zone (IZ) (Fusarium oxysporum): 8 mm; inhibition zone (IZ) (Escherichia coli [6]): 8 mm; MIC (Pseudomonas aeruginosa): 25 µg/mL (≈ 88.6 µM); inhibition zone (IZ) (Bacillus subtilis): 15 mm; MIC (Bacillus subtilis): 12.5 µg/mL (≈ 44.3 µM); inhibition zone (IZ) (Staphylococcus aureus [7]): 13 mm; MIC (Staphylococcus aureus [7]): 12.5 µg/mL (≈ 44.3 µM) |
